In US10745416B2, “Macrocyclic compounds for treating disease” (Turning Point Therapeutics, Inc., priority 2017, dated 2020):

Experiments:
Test in all cases: Cell proliferation assay (CellTiter-Glo, 72 hours)
KG-1 = assay type: cell-based, human; details: Homo sapiens, KG-1, anti-cell proliferation
Experimental: (§1) Human medulla thyroid carcinoma cell line TT (containing RET […] mutation) and acute myelogenous cell line KG-1 were purchased from ATCC. Human colon cancer cell line KMI2 (containing TPM3-TRKA) was obtained from NCI.
(§2) Two thousand cells per well were seeded in 384 well white plate for 24 hrs, and then treated with compounds for 72 hours (37° C., 5% CO2). Cell proliferation was measured using CellTiter-Glo luciferase-based ATP detection assay (Promega) following the manufactures's protocol. IC50 determinations were performed using GraphPad Prism software (GraphPad, Inc., San Diego, Calif.).

KM12 cell (TPM3-TRKA) = assay type: cell-based, human; details: Homo sapiens, KM12, anti-cell proliferation
Experimental: as §1, §2

BaF3 EML4-ALK = biological target: T1, BaF3 EML4-ALK (Homo sapiens, UniProt Q9UM73); assay type: cell-based; details: anti-cell proliferation
T1 construct: The EML4-ALK gene (variant 1) was synthesized at GenScript and cloned into pCDH-CMV-MCS-EF1-Puro plasmid (System Biosciences, Inc); fused on or other part: Q9HC35 (Echinoderm microtubule-associated protein-like 4)
Experimental: The EML4-ALK gene (variant 1) was synthesized at GenScript and cloned into pCDH-CMV-MCS-EF1-Puro plasmid (System Biosciences, Inc). Ba/F3-EML4-ALK wild type were generated by transducing Ba/F3 cells with lentivirus containing EML4-ALK wide type. Stable cell lines were selected by puromycin treatment, followed by IL-3 withdrawal. Briefly, 5×10^6 Ba/F3 cells were transduced with lentivirus supernatant in the presence of 8 μg/mL protamine sulfate. The transduced cells were subsequently selected with 1 μg/mL puromycin in the presence of IL3-containing medium RPMI1640, plus 10% FBS. After 10-12 days of selection, the surviving cells were further selected for IL3 independent growth.
as §2

BaF3 KIF5B-RET_V804M = biological target: T2, BaF3 KIF5B-RET_V804M (Homo sapiens, UniProt P07949, V804M, cells depend on it); assay type: cell-based; details: anti-cell proliferation, read-out: BaF3 KIF5B-RET_V804M IC50
T2 construct: fused on or other part: P33176 (Kinesin-1 heavy chain)
Text: (§3) The KIF5B-RET gene was synthesized at GenScript and cloned into pCDH-CMV-MCS-EF1-Puro plasmid (System Biosciences, Inc). KIF5B-RET point mutation V804M was generated at GenScript by PCR and confirmed by sequencing. Ba/F3-KIF5B-RET wild type and mutant were generated by transducing Ba/F3 cells with lentivirus containing KIF5B-RET wide type or mutant. Stable cell lines were selected by puromycin treatment, followed by IL-3 withdrawal. Briefly, 5×10^6 Ba/F3 cells were transduced with lentivirus supernatant in the presence of 8 μg/mL protamine sulfate. The transduced cells were subsequently selected with 1 µg/mL puromycin in the presence of IL3-containing medium RPMI1640, plus 10% FBS. After 10-12 days of selection, the surviving cells were further selected for IL3 independent growth.
as §2

BaF3 KIF5B-RET = biological target: T3, BaF3 KIF5B-RET (Homo sapiens, UniProt P07949); assay type: cell-based; details: anti-cell proliferation, read-out: BaF3 KIF5B-RET IC50
T3 construct: fused on or other part: P33176 (Kinesin-1 heavy chain)
Text: as §3, §2

BaF3 KIF5B-RET_G810R = biological target: T4, BaF3 KIF5B-RET_G810R (Homo sapiens, UniProt P07949, G810R, cells depend on it); assay type: cell-based; details: anti-cell proliferation, read-out: BaF3 KIF5B-RET_G810R IC50
T4 construct: fused on or other part: P33176 (Kinesin-1 heavy chain)
Text: [The source words this procedure for another variant and reports this variant under the same test.] as §3, §2

T3 sequence (P07949 whole entry, change not shown, the tested form may be a part): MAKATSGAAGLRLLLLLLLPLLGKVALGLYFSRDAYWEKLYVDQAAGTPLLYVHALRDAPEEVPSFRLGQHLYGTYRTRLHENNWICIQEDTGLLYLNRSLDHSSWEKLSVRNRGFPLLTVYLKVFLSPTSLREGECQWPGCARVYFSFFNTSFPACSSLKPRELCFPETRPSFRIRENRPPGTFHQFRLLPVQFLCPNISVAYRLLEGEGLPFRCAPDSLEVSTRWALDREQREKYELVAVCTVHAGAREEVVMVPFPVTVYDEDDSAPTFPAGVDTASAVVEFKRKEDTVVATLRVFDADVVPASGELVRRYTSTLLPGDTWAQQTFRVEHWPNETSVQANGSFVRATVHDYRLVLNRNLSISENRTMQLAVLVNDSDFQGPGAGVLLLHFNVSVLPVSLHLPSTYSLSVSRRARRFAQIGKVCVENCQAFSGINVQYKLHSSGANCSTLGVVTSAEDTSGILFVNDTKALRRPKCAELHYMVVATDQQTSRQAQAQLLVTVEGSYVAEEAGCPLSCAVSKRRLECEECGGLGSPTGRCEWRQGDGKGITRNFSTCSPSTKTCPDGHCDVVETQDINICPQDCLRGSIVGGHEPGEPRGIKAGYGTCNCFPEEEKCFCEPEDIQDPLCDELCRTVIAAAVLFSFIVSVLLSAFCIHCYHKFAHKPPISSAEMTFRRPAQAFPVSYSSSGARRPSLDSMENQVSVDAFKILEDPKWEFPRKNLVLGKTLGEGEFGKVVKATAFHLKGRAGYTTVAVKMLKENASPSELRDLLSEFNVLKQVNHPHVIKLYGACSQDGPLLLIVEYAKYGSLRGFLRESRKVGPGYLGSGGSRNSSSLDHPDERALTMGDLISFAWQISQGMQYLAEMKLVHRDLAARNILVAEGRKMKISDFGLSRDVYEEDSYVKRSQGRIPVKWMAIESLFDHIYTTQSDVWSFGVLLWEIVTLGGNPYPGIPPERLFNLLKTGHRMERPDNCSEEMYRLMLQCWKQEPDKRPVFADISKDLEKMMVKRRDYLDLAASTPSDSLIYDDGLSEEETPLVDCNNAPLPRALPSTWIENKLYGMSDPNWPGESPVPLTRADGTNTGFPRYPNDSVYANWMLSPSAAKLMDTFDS
T4 sequence (P07949 whole entry G810R, the tested form may be a part): as the sequence (P07949 whole entry, change not shown, the tested form may be a part) above, with G810R counted along it
T2 sequence (P07949 whole entry V804M, the tested form may be a part): as the sequence (P07949 whole entry, change not shown, the tested form may be a part) above, with V804M counted along it
T1 sequence (Q9UM73 whole entry, change not shown, the tested form may be a part): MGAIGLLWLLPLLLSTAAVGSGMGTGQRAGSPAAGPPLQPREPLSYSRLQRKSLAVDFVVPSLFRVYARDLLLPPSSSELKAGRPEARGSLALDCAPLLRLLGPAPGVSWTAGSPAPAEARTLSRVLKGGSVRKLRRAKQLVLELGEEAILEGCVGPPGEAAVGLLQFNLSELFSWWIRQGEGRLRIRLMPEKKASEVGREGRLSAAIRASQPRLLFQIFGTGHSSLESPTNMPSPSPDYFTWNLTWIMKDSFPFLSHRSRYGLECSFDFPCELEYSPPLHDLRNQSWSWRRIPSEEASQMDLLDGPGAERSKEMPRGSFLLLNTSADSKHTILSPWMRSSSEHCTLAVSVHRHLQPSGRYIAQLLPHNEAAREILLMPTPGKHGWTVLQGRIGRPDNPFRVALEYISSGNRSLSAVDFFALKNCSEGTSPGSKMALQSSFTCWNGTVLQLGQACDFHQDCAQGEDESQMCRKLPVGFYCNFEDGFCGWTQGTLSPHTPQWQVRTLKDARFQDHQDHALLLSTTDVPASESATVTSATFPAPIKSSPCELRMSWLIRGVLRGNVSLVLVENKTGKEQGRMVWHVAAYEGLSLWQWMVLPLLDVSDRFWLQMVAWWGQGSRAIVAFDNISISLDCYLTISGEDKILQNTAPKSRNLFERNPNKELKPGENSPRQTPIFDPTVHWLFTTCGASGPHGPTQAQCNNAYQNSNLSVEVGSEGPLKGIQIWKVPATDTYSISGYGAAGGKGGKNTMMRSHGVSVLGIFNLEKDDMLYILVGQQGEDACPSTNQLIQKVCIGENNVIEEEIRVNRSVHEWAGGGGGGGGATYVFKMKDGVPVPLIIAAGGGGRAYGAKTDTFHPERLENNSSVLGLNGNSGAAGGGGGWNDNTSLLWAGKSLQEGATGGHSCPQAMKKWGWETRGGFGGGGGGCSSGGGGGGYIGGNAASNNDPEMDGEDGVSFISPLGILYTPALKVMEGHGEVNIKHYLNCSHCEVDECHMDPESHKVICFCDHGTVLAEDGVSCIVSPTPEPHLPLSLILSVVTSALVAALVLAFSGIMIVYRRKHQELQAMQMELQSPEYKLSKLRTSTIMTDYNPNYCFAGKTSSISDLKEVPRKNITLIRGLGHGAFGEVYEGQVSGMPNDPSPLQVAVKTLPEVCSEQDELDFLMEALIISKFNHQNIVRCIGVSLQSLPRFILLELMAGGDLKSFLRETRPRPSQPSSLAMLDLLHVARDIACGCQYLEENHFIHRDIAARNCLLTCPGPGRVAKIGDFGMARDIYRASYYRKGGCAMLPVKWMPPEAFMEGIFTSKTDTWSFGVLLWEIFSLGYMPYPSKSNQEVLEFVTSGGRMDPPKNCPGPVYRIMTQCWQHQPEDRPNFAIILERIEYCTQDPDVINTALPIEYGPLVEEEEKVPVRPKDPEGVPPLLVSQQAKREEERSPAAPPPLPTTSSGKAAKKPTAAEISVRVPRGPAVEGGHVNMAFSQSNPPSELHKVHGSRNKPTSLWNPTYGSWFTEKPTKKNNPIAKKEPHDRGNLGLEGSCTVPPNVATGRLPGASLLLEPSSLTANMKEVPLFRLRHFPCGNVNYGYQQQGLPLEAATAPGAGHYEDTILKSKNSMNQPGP

Row | GI50 (BaF3 EML4-ALK) [µM] | GI50 (BaF3 KIF5B-RET_V804M) [µM] | GI50 (BaF3 KIF5B-RET) [µM] | GI50 (BaF3 KIF5B-RET_G810R) [µM] | Structure (SMILES) | IC50 (KG-1) [µM] | IC50 (KM12 cell (TPM3-TRKA)) [µM]
1 | 0.364 | 1.24 | 0.0011 | 0.0087 | C[C@H]1CCNC(=O)c2cnn3cc4c(nc23)N(Cc2cc(F)cnc2O1)[C@@H]1CCC[C@@H]1O4 [Compound 15, (3aR,11S,21aS)-7-fluoro-11-methyl-2,3,3a,12,13,14,21a-octahydro-1H,5H, 15H-18,20-(metheno)cyclopenta[5,6] [1,4]oxazino[4,3-e]pyrazolo[3,4-h]pyrido [2,3-b][1,5,7,11]oxatriazacyclotetradecin-15-one] | 0.0052 | 0.0051
2 | 1.06 | 5.72 | 0.089 | 0.501 | O=C1NC[C@H](O)COc2ncc(F)cc2CN2c3nc4c1cnn4cc3O[C@H]1CCC[C@H]12 [Compound 32, (3aR,12S,21aS)-7-fluoro-12-hydroxy-2,3,3a,11,12,13,14,21a-octahydro-1H,5H,15H-18,20-(metheno)cyclopenta[5,6][1,4]oxazino[4,3-e]pyrazolo[3,4-h]pyrido[2,3-b][1,5,7,11]oxatriazacyclotetradecin-15-one] | 0.223 | 0.0202
3 | 0.456 | 1.07 | 0.0002 | 0.0909 | O=C1N[C@H](C(F)(F)F)COc2ncc(F)cc2CN2c3nc4c1cnn4cc3O[C@H]1CCC[C@H]12 [Compound 48, (3aR,12S,20aS)-7-fluoro-12-(trifluoromethyl)-2,3,3a,12,13,20a-hexahydro-1H,5H-17,19-(metheno)cyclopenta[5,6][1,4]oxazino[3,4-i]pyrazolo[4,3-f]pyrido[3,2-l][1,4,8,10]oxatriazacyclotridecin-14(11H)-one] | 0.117 | 0.0059
4 | 1.4 | 1.86 | 0.0011 | 0.0078 | O=C1NCC2(CC2)COc2ncc(F)cc2CN2c3nc4c1cnn4cc3O[C@H]1CCC[C@H]12 [Compound 20, (3a′R,21a′S)-7′-fluoro-1′H,2′H,3′H,3a′H, 5′H,11′H,13′H,14′H,15′H,21a′H-spiro[cyclopropane-1,12′-[10,21]dioxa[4,9,14,17,18,19][hexaaza [18,20](metheno)cyclopenta[5,6][1,4]oxazino[4,3-e]pyrazolo[3,4-h]pyrido [3,2-b][1,5,7,11]oxatriazacyclotetradecin]-15′-one] | 0.0024 | 0.0005
5 | 0.469 | 1.22 | 0.0018 | 0.0736 | O=C1N[C@@H]2CCC[C@@H]2Oc2ncc(F)cc2CN2c3nc4c1cnn4cc3O[C@H]1CCC[C@H]12 [Compound 24, (3aS,11aR,14aS,21aR)-18-fluoro-2,3,3a,11,11a,12,13,14,14a,21a-decahydro-1H,10H,20H-7,5-(metheno)cyclopenta[b]cyclopenta[5,6][1,4] oxazino[3,4-i]pyrazolo[4,3-f]pyrido[3,2-l][1,4,8,10]oxatriazacyclotridecin-10-one] | 0.0087 | 0.0028
6 | 0.157 | 1.76 | < 0.0002 | 0.128 | O=C1NC2(CCC2)COc2ncc(F)cc2CN2c3nc4c1cnn4cc3O[C@H]1CCC[C@H]12 [Compound 22, (3a′R,20a′S)-7′-fluoro-1′H,2′H,3′H,3a′H, 5′H,11′H,13′H,14′H,20a′H-spiro[cyclobutane-1,12′-[10,20]dioxa[4,9,13,16,17,18][hexaaza [17,19](metheno)cyclopenta[5,6][1,4]oxazino[3,4-i]pyrazolo[4,3-f]pyrido [3,2-l][1,4,8,10]oxatriazacyclotridecin]-14′-one] | 0.156 | 0.0493
7 | 0.803 | 2 | 0.0015 | 0.072 | C[C@H]1CCOc2ncc(F)cc2CN2c3nc4c(cnn4cc3O[C@H]3CCC[C@H]32)C(=O)N1 [Compound 28, (3aR,13S,21aS)-7-fluoro-13-methyl-2,3,3a,11,12,13,14,21a-octahydro-1H,5H,15H-18,20-(metheno)cyclopenta[5,6][1,4]oxazino[4,3-e]pyrazolo[3,4-h]pyrido[2,3-b][1,5,7,11]oxatriazacyclotetradecin-15-one] | 0.0228 | 0.0118
8 | 2 | 0.337 | 0.162 | 1.86 | C[C@H]1CNC(=O)c2cnn3cc4c(nc23)N(Cc2cc(F)cnc2O1)[C@@H]1COC[C@@H]1O4 [Compound 30, (3aR,11S,20aR)-7-fluoro-11-methyl-1,3,3a,12,13,20a-hexahydro-5H-17,19-(metheno)furo[3′,4′:5,6][1,4]oxazino[3,4-i]pyrazolo[4,3-f]pyrido[3,2-l][1,4,8,10]oxatriazacyclotridecin-14(11H)-one] | 0.853 | 0.0135
9 | 0.616 | 2.73 | 0.0018 | 0.0107 | C[C@H]1CNC(=O)c2cnn3cc4c(nc23)N(Cc2cc(F)cnc2OC1)[C@@H]1CCC[C@@H]1O4 [Compound 17, (3aR,12S,21aS)-7-fluoro-12-methyl-2,3,3a,11,12,13,14,21a-octahydro-1H,5H, 15H-18,20-(metheno)cyclopenta[5,6] [1,4]oxazino[4,3-e]pyrazolo[3,4-h]pyrido [2,3-b][1,5,7,11]oxatriazacyclotetradecin-15-one] | 0.005 | 0.004
10 | 0.462 | 3.46 | < 0.0002 | 0.082 | CC1(C)COc2ncc(F)cc2CN2c3nc4c(cnn4cc3O[C@H]3CCC[C@H]32)C(=O)N1 [Compound 21, (3aR,20aS)-7-fluoro-12,12-dimethyl-2,3,3a,12,13,20a-hexahydro-1H,5H-17,19-(metheno)cyclopenta[5,6] [1,4]oxazino[3,4-i]pyrazolo[4,3-f]pyrido [3,2-l][1,4,8,10]oxatriazacyclotridecin-14(11H)-one] | 0.0869 | 0.0138
11 | 0.675 | 1.84 | 0.0002 | 0.0992 | C[C@@H]1COc2c(F)cc(F)cc2CN2c3nc4c(cnn4cc3O[C@H]3CCC[C@H]32)C(=O)N1 [Compound 7, (3aR,12R,20aS)-7,9-difluoro-12-methyl-2,3,3a,12,13,20a-hexahydro-1H,5H-17-19-(metheno)cyclopenta[5,6][1,4] oxazino[3,4-i]pyrazolo[4,3-f][1,4,8,10]benzoxatriazacyclotridecin-14(11H)-one] | 0.344 | 0.037
12 | 0.139 | 0.469 | < 0.0002 | 0.0036 | O=C1N[C@H](C(F)F)COc2ncc(F)cc2CN2c3nc4c1cnn4cc3O[C@H]1CCC[C@H]12 [Compound 47, (3aR,12S,20aS)-12-(difluoromethyl)-7-fluoro-2,3,3a,12,13,20a-hexahydro-1H,5H-17,19-(metheno)cyclopenta[5,6][1,4] oxazino[3,4-i]pyrazolo[4,3-f]pyrido[3,2-l][1,4,8,10]oxatriazacyclotridecin-14(11H)-one] | 0.0035 | < 0.0002
13 | 2 | 4 | 0.198 | 1.2 | O=C1NCC(O)(O)COc2ncc(F)cc2CN2c3nc4c1cnn4cc3O[C@H]1CCC[C@H]12 [Compound 33, (3aR,21aS)-7-fluoro-12,12-dihydroxy-2,3,3a,11,12,13,14,21a-octahydro-1H,5H,15H-18,20-(metheno)cyclopenta[5,6][1,4]oxazino[4,3-e]pyrazolo[3,4-h]pyrido[2,3-b][1,5,7,11]oxatriazacyclotetradecin-15-one] | 0.356 | 0.124
